Laboratory results as given in patent publication US12214008B2, “Protein interfaces” (SyntheX, Inc., priority 2016, dated 2025).
“Also recorded” adds a separate entry of the source. Residues, ends and D or L forms follow the SMILES beside them. Groups on a side chain read outwards from the residue. *: point of attachment. 5FAM = O=C1OC2(c3ccc(O)cc3Oc3cc(O)ccc32)c2ccc(C(=O)*)cc21; Ahx = NCCCCCC(=O)O

Columns and labels:
SSP-25 cells [1] = assay: MTT growth inhibition assay; assay type: cell-based; conditions: 5 μM or 10 μM, 48 hours of cell growth, vs water mock
Experimental: To assess the growth inhibitory properties of compounds disclosed herein, 5 μM or 10 μM of compounds 1, 3, and 5 were tested against a water mock treatment for growth inhibition of SSP-25 cells using an MTT assay after 48 hours of cell growth.

SSP-25 cells [2] = assay: growth assay (percent confluence); assay type: cell-based; conditions: 5 μM or 10 μM, compared to PBS
Experimental: A growth assay was performed using SSP-25 cells with 5 μM or 10 μM of compound 1. […] The experimental protocol described in Example 3 was used for the growth assay.
The same growth assay was repeated using 10 μM of compound 1 and compound 2. Compound 2 contains a single substitution within the core consensus sequence, which interrupts the binding of compound 2 to RAD51.

SSP-25 cells [3] = assay: xCELLigence cell death assay; assay type: cell-based; conditions: for rescue of compound 10-induced cell death by ruthenium red: 40 μM Ruthenium red added to cells treated with 10 μM compound 10
Experimental: Further, singly-dosed cells continued to recover, which indicated reduced general cytotoxicity of the compound in the media or the lysed cells.
To optimize cellular activity, compounds were tested in xCELLigence cell death assays against various cell lines. An example of the workflow used is shown using A549 cells and compound 10 in FIGS. 15 and 16. […] Data from xCELLigence traces at different compound concentrations from FIG. 15 was then used to generate a dose-response curve, which was then subjected to nonlinear regression using a sigmoidal dose-response model to generate IC50s and R2 values for cell death for each compound/cell line combination (FIG. 16).
To further investigate the hypothesis that peptide binding to RAD51 in cells causes cell death via increases in intracellular free calcium levels, compound 10 alone and in combination with two different intracellular calcium chelators (1,2-Bis(2-aminophenoxy) ethane-N,N,N′,N′-tetraacetic acid tetrakis(acetoxymethyl ester) aka “BAPTA-AM”, and ammoniated ruthenium oxychloride aka “ruthenium red”) was tested in an xCELLigence™ cell death assay as in Example 3. The intracellular calcium chelators alone were also evaluated on the cells.

GM08505, Blm cells = tested on: GM08505, Blm cells
Experimental: To assess the ability of compounds disclosed herein to rescue the drug-sensitivity of Bloom's Syndrome patient cells, GM08505, Blm cells were treated with PBS, 5 μM etoposide, or 5 μM etoposide and 10 μM compound 5.

HeLa = conditions: compound 5 at 5 μM, compound 1 at 10 μM
Experimental: (§1) To assess the specificity of compounds disclosed herein in targeting cancers with mutations in the BRCA2 pathway, compounds 1 and 5 were tested against HeLa (human cervical cancer) and SSP-25 cells (cholangiocarcinoma cell line) (FIG. 2). To measure killing of the cells by compounds 1 and 5, a cell stain (CytoTox Red™) was used, which can be measured spectrophotometrically, and is indicative of cell viability. First, 5,000 cells were incubated in 96-well culture plates overnight. The media (RPMI with 10% FBS) was removed and replaced with serum free media (RPMI) containing 125 nM CytoTox Red™. FITC-labeled compounds 5 and 1 were added to concentrations of 5 μM and 10 μM, respectively, and imaging commenced using an IncuCyte™ instrument using 15 minute time points. 2× serum-containing media was added after one hour incubation, and the cells were imaged every 2 hours. To detect CytoTox Red™ the following parameters were used: Excitation Wavelength: 585 nm; Passband: [565,605] nm and Emission Wavelength: 635 nm; Passband: [625, 705] nm. To detect compounds 5 and 1 using the FITC label, the following parameters were used: Excitation Wavelength: 460 nm; Passband: [440,480] nm and Emission Wavelength: 524 nm; Passband: [504,544] nm was used.

SSP-25 cells [4] = conditions: compound 5 at 5 μM, compound 1 at 10 μM; vs PBS
Experimental: as §1

RAD51 = molecular target: T1, RAD51 (Homo sapiens, UniProt Q06609); assay: microscale thermophoresis; assay type: binding; conditions: 0 vs 1 mM Ca2+
T1 sequence (Q06609 1-339): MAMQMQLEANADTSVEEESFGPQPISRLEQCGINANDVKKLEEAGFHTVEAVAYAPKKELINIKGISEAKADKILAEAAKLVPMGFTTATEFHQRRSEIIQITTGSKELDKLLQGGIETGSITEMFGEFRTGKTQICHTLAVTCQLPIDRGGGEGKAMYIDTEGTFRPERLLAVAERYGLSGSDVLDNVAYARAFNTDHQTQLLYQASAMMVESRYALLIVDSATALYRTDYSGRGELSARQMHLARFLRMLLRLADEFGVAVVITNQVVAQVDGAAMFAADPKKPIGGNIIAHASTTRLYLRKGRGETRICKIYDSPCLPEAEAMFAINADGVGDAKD
Experimental: To test the interaction between calcium binding and peptide binding to RAD51, the Kds of active (Compound 5, 10) peptides for RAD51 were tested by a microscale thermophoresis assay, and the Kd of compound 5 was additionally performed in the presence of 1 mM calcium.
Microscale thermophoresis was performed as previously described (see, for e.g. Jerabek-Willemsen, M., Wienken, C. J., Braun, D., Baaske, P. & Duhr, S. Molecular interaction studies using microscale thermophoresis. Assay Drug Dev. Technol. 9, 342-353 (2011)). The affinity of the Compound was measured using the Monolith NT.115 from Nanotemper Technologies. Rad51 was fluorescently labelled according to the manufacturer's protocol and the labelled protein used for each assay was about 500 nM. A solution of unlabelled peptide was diluted for appropriate serial concentration gradient. The samples were loaded into silica capillaries (Polymicro Technologies). Measurements were performed at room temperature in buffer containing PBS, 0.1% Tween 20, 0.5 mM ATP, 2.5 uM ssDNA, with 1 mM CaCl2 (when mentioned). Measurements were done using 12% LED power and 60% MST power. The assays were repeated three times for each affinity measurement. Data analyses were performed using Nanotemper Analysis software and OriginPro 8.0 software provided by the manufacturer.

PC3 cells = assay: xCELLigence cell death assay; conditions: 60 μM at 24 hours
Experimental: First, 5,000 PC3 cells were plated, and adherence and growth was measured for 24 hours using live measurements of current impedance through the plate using the xCELLigence™ instrument. […] This was repeated again at the 124 hour mark.

Ac-K(C6_5FAM)-QSLRLGLSRLARVKRLHPGARRRRRRRR-NH2 (Ac-K(C6_5FAM)QSLRLGLSRLARVKRLHPGARRRRRRRR-NH2) [Compound 1]
growth inhibition of SSP-25 cells (SSP-25 cells [1]): dose-dependent effect on the growth of SSP-25
percent confluence of SSP-25 cells (SSP-25 cells [2]): decreased the percent confluence of the cells

N.N.N.N.N.N.N.N.N.N.N.N.N.N.[Cl-].[Cl-].[Cl-].[Cl-].[Cl-].[Cl-].[O-2].[O-2].[Ru+3].[Ru+3].[Ru+4] [Ruthenium red, ammoniated ruthenium oxychloride]
rescue of compound 10-induced cell death by ruthenium red (SSP-25 cells [3]): able to counteract the cell-death inducing effects of compound 10; also recorded: rescues cell death relative to compound alone
rescue of compound 10-induced cell death by ruthenium red (SSP-25 cells [3]; listed as ruthenium red): rescues cell death due to compound 10

COc1cc([C@@H]2c3cc4c(cc3[C@@H](O[C@@H]3O[C@@H]5CO[C@@H](C)O[C@H]5[C@H](O)[C@H]3O)[C@H]3COC(=O)[C@H]23)OCO4)cc(OC)c1O [etoposide, reference compound]
growth of Blm cells (percent confluence) (GM08505, Blm cells; 5 μM etoposide alone): growth of the Blm cells was affected

CSCC[C@H](NC(=O)[C@H](CCCNC(=N)N)NC(=O)[C@H](CO)NC(=O)[C@@H](NC(=O)[C@H](CCCNC(=N)N)NC(=O)[C@H](CC(C)C)NC(=O)[C@H](CCCNC(=N)N)NC(=O)[C@@H](NC(=O)CNC(=O)[C@H](CC(C)C)NC(=O)[C@H](CCCNC(=N)N)NC(=O)[C@H](CCCCN)NC(=O)[C@H](CCCNC(=N)N)NC(=O)[C@H](CCCNC(=N)N)NC(=O)[C@H](CCCNC(=N)N)NC(=O)[C@H](CCCNC(=N)N)NC(=O)[C@H](CCCNC(=N)N)NC(=O)[C@H](CCCNC(=N)N)NC(=O)[C@H](CCCNC(=N)N)NC(=O)[C@H](CCCCNC(=O)CCCCCNC(=O)c1ccc2c(c1)C(=O)OC21c2ccc(O)cc2Oc2cc(O)ccc21)NC(C)=O)C(C)C)C(C)C)C(=O)N[C@@H](CC(C)C)C(N)=O [Compound 5] (Ac-K([Ahx-5FAM])RRRRRRRKRLGVRLRVSRML-NH2)
growth inhibition of SSP-25 cells (SSP-25 cells [1]): strongest inhibitory effect, regardless of concentration
efficacy in acidified media (SSP-25 cells [3]; 30 μM added at 72 hours to previously untreated cells): efficacy of compound 5 in acidified media
cell death kinetics (cell index) (SSP-25 cells [3]; 30 μM compound 5 added at 20 hours): acute cell death kinetics
cell death (CytoTox Red staining) in HeLa cells (HeLa): little cell death is generated in the HeLa cells compared to the SSP-25 cells
cell death (CytoTox Red staining) in SSP-25 cells (SSP-25 cells [4]): greatest efficacy in the SSP-25 cells
rescue of etoposide-induced growth defect of Blm cells (percent confluence) (GM08505, Blm cells; 5 μM etoposide and 10 μM compound 5, comparable to PBS): able to rescue the hypersensitivity of a Bloom's cell line (GM08505) to a genotoxic stress (etoposide); also recorded: suppression of cell growth defects induced by etoposide
increase of Kd when calcium (Ca2+) raised from 0 to 1 mM (RAD51): 3.4 fold
cell death of PC3 cells (cell index) (PC3 cells): acute cell death kinetics; also recorded: highly potent
PC3 cells eliminated (PC3 cells; 100 μM more at 84 and 124 hours, compared to compound 6 and PBS controls): over 75%

KQSLRLGLSRLARVKRLHPGARRRRRRRR [Compound 3]
growth inhibition of SSP-25 cells (SSP-25 cells [1]): dose-dependent effect on the growth of SSP-25

CC(=O)OCOC(=O)CN(CC(=O)OCOC(C)=O)c1ccccc1OCCOc1ccccc1N(CC(=O)OCOC(C)=O)CC(=O)OCOC(C)=O [BAPTA-AM, 1,2-Bis(2-aminophenoxy) ethane-N,N,N′,N′-tetraacetic acid tetrakis(acetoxymethyl ester)]
rescue of compound 10-induced cell death by BAPTA-AM (SSP-25 cells [3]; 10 μM BAPTA-AM added to cells treated with 10 μM compound 10): able to counteract the cell-death inducing effects of compound 10; also recorded: rescues cell death relative to compound alone; also recorded: rescues cell death due to compound 10
